{"source": "patent US11413260B2", "about": "“Use of 1,3-propanedisulfonic acid or pharmaceutically acceptable salts thereof for the treatment of sarcoidosis” (Icahn School of Medicine at Mount Sinai, priority 2014, dated 2022)", "key": {"[1]": {"system": "SAA-induced production of IL-10 by THP-1 cells", "test": "SAA-stimulated inflammation in THP-1 cells: IL-10 production", "format": "cell-based", "settings": "THP-1 cells treated with PMA and SAA", "source_text": "(§1) FIG. 1 summarizes the protocol employed to evaluate the effect of 1,3-propanedisulfonic acid (or a pharmaceutically acceptable salt thereof) on SAA (serum amyloid A) stimulated inflammation in THP-1 cells.\n(§2) THP-1 cells were subjected to PMA (phorbol 12-myristate 13-acetate (EMD Cat. #524400)), SAA (serum amyloid A (PeroTech Cat. #300-13)), and 1,3-propanedisulfonic acid (KIACTA C933 (NRA610-01-CF)). The SAA treated cells were used as a positive control, with the SAA increasing the inflammatory mediators, TNF, IL-18 and IL-10. 1,3-propanedisulfonic acid is added to the cell cultures and the effect on TNF, IL-18 and IL-10 levels is measured."}, "[2]": {"system": "SAA-induced production of IL-TNF by THP-1 cells", "test": "SAA-stimulated inflammation in THP-1 cells: TNF production", "format": "cell-based", "settings": "THP-1 cells treated with PMA and SAA", "source_text": "as §1, §2"}, "sarcoidosis": {"system": "sarcoidosis", "test": "Treatment of a patient diagnosed with sarcoidosis", "format": "in vivo", "procedure": "A patient is diagnosed with sarcoidosis, and 1,3-propane disulfonic acid is administered to the patient."}, "[3]": {"system": "SAA-induced production of IL-18 by THP-1 cells", "test": "SAA-stimulated inflammation in THP-1 cells: IL-18 production", "format": "cell-based", "settings": "THP-1 cells treated with PMA and SAA", "source_text": "as §1, §2"}}, "data": [{"smiles": "O=S(=O)(O)CCCS(=O)(=O)O", "note": "[1,3-propanedisulfonic acid]", "values": [{"measurement": "concentration that inhibits SAA-induced production of IL-10", "setting": "[1]", "value": "≥ 2.5", "unit": "mg/mL"}, {"measurement": "concentration that inhibits SAA-induced production of IL-TNF", "setting": "[2]", "value": "≥ 1.25", "unit": "mg/mL"}, {"measurement": "effect on sarcoidosis symptoms", "setting": "sarcoidosis", "value": "reduction and/or alleviation of sarcoidosis symptoms"}, {"measurement": "concentration that inhibits SAA-induced production of IL-18", "setting": "[3]", "value": "≥ 5", "unit": "mg/mL"}]}]}
